Assays:
[1] = test system: LG-histone adducts in RAW264.7 cells; test: LG-lysyl adduct formation on histones in RAW264.7 cells (LC/ESI/MS/MS); format: cell-based, mouse
Experimental: (§1) FIGS. 11A, 11B, 11C, 11D, 11E, and 11F are a series of graphs showing that LG-lysine adducts of histones are found in cells and tissue, dependent on COX-2 activity. RAW264.7 mouse macrophage (A) and A549 human lung carcinoma (C) cells were stimulated to express COX-2, then given 20 μM arachidonic acid (AA) or vehicle. A subgroup of cells was preincubated 45 min with 50 μM indomethacin. As a measure of COX activity, PGE2 was determined by GC/MS from cell media prior to lysis (B and D). Nuclei were isolated, and histones were extracted and digested to individual amino acids prior to LC/EST/MS/MS analysis. *, p<0.05; ***, p<0.001 by ANOVA followed by Tukey's post-test (n≥5). (E). Histones were extracted from nuclei of rat liver, and analyzed as above for LG-lactam adduct. COX-2 protein was analyzed by Western blotting and plotted against lactam adduct levels. Each point corresponds to 1 liver, and shown is the line of regression (r^2=0.7237). Pearson r=0.8507; two-tailed p=0.0152. (F) LC-MS chromatograph of histones isolated from a rat liver with relatively high COX-2 expression (COX-2 band intensity of 117 arbitrary units).
(A). Scavengers were screened in RAW264.7 cells for the ability to decrease LG adduct formation on histones. Scavengers used were glucosamine (GA), 3-methoxysalicylamine (3-MoSA), pentylpyridoxamine (PPM), and 5-ethylsalicylamine (EtSA). Cells were stimulated to express COX-2, pretreated 45 min. with 500 μM scavenger or vehicle (H2O), and given 20 μM AA for 1 h before lysing and extracting histones. Histone proteins were analyzed by LC/ESI/MS/MS for LG-lysyl lactam adduct, n=2. (B) Stimulated A549 cells were pretreated with 30, 300, or 1000 μM EtSA prior to 1 h with 20 μM AA, and histones analyzed for LG-lysyl adduct. *, p<0.05 by one-way ANOVA followed by Dunnett's multiple comparisons post-test (n=3-5). (C). A549 cells were stimulated, pretreated 45 min. with 1000 μM EtSA or H2O vehicle, and given 20 μM AA for 1 h. Media was analyzed by GC/MS for PGE2 (n=3). There was no effect on PGE2 production at lower doses of EtSA (data not shown).
To stimulate COX-2 expression, A549 or RAW264.7 cells were treated overnight with 5 ng/mL IL-1B (A549) or 10 μg/mL LPS and 10 U/mL IFNγ (RAW264.7) in serum-free medium. When indicated, cells were pretreated with indomethacin, aldehyde scavengers (glucosamine, 3-MoSA, PPM or EtSA), or vehicle (ethanol for indomethacin, H2O for scavengers) for 45 min, and then given 20 μM arachidonic acid (AA) or DMSO vehicle for 1 h before lysing.
Cultured cells were lysed in hypotonic buffer (10 mM Tris/10 mM NaCl/3 mM MgCl2) containing 1 mM pyridoxamine and 100 μM indomethacin to prevent the artifactual formation of LGE2 during the lytic process. […] Protein concentration was determined using the method of Bradford. […]

[2] = test system: LG-histone adducts in A549 cells; test: LG-lysyl adduct formation on histones in A549 cells (LC/ESI/MS/MS); format: cell-based, human; settings: COX-2-stimulated A549, 20 μM AA, 50 μM indomethacin preincubated 45 min
Experimental: as §1, with “(F) LC-MS chromatograph of histones isolated from a rat liver with relatively high COX-2 expression (COX-2 band intensity of 117 arbitrary units).” left out
(A). […] Histone proteins were analyzed by LC/ESI/MS/MS for LG-lysyl lactam adduct, n=2. (B) Stimulated A549 cells were pretreated with 30, 300, or 1000 μM EtSA prior to 1 h with 20 μM AA, and histones analyzed for LG-lysyl adduct. *, p<0.05 by one-way ANOVA followed by Dunnett's multiple comparisons post-test (n=3-5). […] Media was analyzed by GC/MS for PGE2 (n=3). […]

lysyl-LG adducts = test: Lysyl-LG adducts in gastric tissues of H. pylori-infected mice (LC/ESI/MS/MS); format: in vivo; settings: H. pylori infected mice treated for 8 weeks
Experimental: FIGS. 15A, 15B, and 15C are graphs showing C57BL/6 (A) or INS-GAS mice (B) were infected for 8 weeks with H. pylori PMSS1. Lysyl-LG adducts were measured in the gastric tissues by LC/ESI/MS/MS. *P<0.05. (C) Lysyl-LG adducts concentration was determined in AGS cells infected (plain bars) or not (open bars) with H. pylori PMSS1 for 24 h, in the presence or absence of EtSA. *P<0.05 vs. uninfected cells. § P<0.05 vs. infected cells without EtSA.
FIG. 17 is a graph showing reduction in the concentration of lysyl-levuglandin adducts in the stomachs of H. pylori infected mice treated with 2-hydroxybenzylamine for 8 weeks.
As discussed further in the Examples, the human gastric epithelial cell line AGS was infected with Hp PMSS1±10 mM EtSA. FVB/N insulin-gastrin (INS-GAS) mice and Mongolian gerbils were infected for 8 wk with Hp PMSS1 and 7.13, respectively; EtSA (0.75% in water) was given to animals beginning one wk post-infection. Lys-LG adducts, a marker of electrophile reactions, and EtSA were quantified by LC/EST/MS/MS. Histology was analyzed on H&E staining. DNA damage was evaluated by pH2AX staining. Hp colonization was quantified by culture. Mucosal immune responses were determined by RNA profiling and by Luminex assay. Mice were imaged using PET/CT with ^18F-FDG (inflammation marker) and ^18F—NaF (tumor marker). […]

[3] = Reaction rate of scavengers with dicarbonyl electrophiles / LG relative to lysine; settings: faster than lysine
Text: Under conditions such as inflammation and/or accumulated mutations, epithelial cells and adjacent immune cells express genes encoding enzymes involved in carcinogenesis, such as prostaglandin-endoperoxide synthase (PGHS2; COX2), NADPH oxidases, and spermine oxidase. The products of these enzymes (prostaglandins, O2D, and H2O2 plus 3-aminopropanal) lead to formation of dicarbonyl electrophiles: levuglandins (LGs), malondialdehyde (MDA), 4-oxo-nonenal (4-O NE), and acrolein. Electrophiles may lead to immune dysfunction and neoplastic risk by forming adducts with proteins and DNA11-15. However, the role of these reactive aldehydes in colon carcinogenesis is previously unknown. The present inventors have discovered that the level of LG-protein adducts is increased in the colon tissues of i) human ulcerative colitis (UC), colitis-associated carcinogenesis (CAC), and CRC; ii) mice treated with azoxymethane-dextran sulfate sodium (AOM-DSS), a model of CAC; and iii) transgenic mice with a tamoxifen-inducible disruption of Apc using the colon-specific, caudal type homeobox 2 (CDX2) Cre (CDX2P-CreERT2;Apcff), which recapitulates sporadic/genetically-driven CRC. […]

oxidative damage = settings: mice; cited from earlier work

COc1ccc2c(c1)c(CC(=O)O)c(C)n2C(=O)c1ccc(Cl)cc1 [indomethacin, reference compound]
LG-histone adduct formation ([1]; COX-2-stimulated RAW264.7, 20 μM AA, 50 μM indomethacin preincubated 45 min): blocked
LG-histone adduct formation [2]: blocked

pentylpyridoxamine [reference compound]
LG adduct formation on histones ([1]; stimulated RAW264.7, 500 μM scavenger 45 min, 20 μM AA 1 h): partially inhibited

NCc1ccccc1O [2-HOBA, 2-hydroxybenzylamine]
concentration of lysyl-levuglandin adducts in the stomachs (lysyl-LG adducts): reduction
rate of reaction with dicarbonyl electrophiles [3]: 3 orders of magnitude
oxidative damage in models of hypertension and Alzheimer's disease (oxidative damage): protects mice from oxidative damage
